# Experimental data published in publication PMC4844649, “A first-in-Asian phase 1 study to evaluate safety, pharmacokinetics and clinical activity of VS-6063, a focal adhesion kinase (FAK) inhibitor in Japanese patients with advanced solid tumors” (Cancer Chemotherapy and Pharmacology, 2016).
# Several values for one entry are separate records, joined by “and”; a condition that tells them apart may be missing. Identical values can stand only once. Entries after “also recorded” stand apart in the source; their conditions may differ. Like-named read-outs stand apart in the source and are kept apart here.
# Key:
# [1] = phase 1 plasma pharmacokinetics, Cycle 1 Days 1 and 15; assay type: in vivo, human; details: for V z, individual values: Day 15, N = 2, individual values are presented; for half-life / Cmax / AUC(0-t) / Tmax / AUC(0-inf): human, plasma; for AUC(0-t): read-out: AUC0–12h, GM (CV %)
# Experimental: Pharmacokinetic samples were to be collected for determination of VS-6063 concentration and potential metabolites at the time points of Pre-dose (within 30 min of VS-6063 dosing), postdose (15 min, 30 min, and 1, 2, 4, 8, 12, and 24 h after VS-6063 administration) during Cycle 1 on Days 1 and 15. The analytical laboratory measured plasma concentrations using a validated method. Phoenix WinNonlin (v 6.3, Pharsight Inc., Mountain View, CA) was used to estimate all pharmacokinetic parameters using the non-compartmental analysis tool and the plasma model. Cmax and Tmax were determined by direct assessment (no calculations) of the concentration versus time data. All AUC calculations followed the linear trapezoidal rule. As data permitted, the terminal elimination rate constant (lambda z, λz) for VS-6063 data was calculated. Lambda z was determined by the slope of the regression line of the natural log transformed concentrations versus time with at least three data points not including the Cmax and a correlation coefficient (R^2) of regression >0.90. In instances where the λz range was not at least twofold greater than the calculated half-life, the resulting values (AUCINF, CL/F and Vz/F) were deemed unreliable and were not reported, although the half-life will be calculated and reported if the λz range met the R^2 requirements. The following PK parameters were to be calculated: oral clearance (CL/F), maximum concentration (Cmax), Tmax, half-life (T1/2), area under the curve (AUC), and other relevant parameters.
# UGT1A1 = details: in vitro; no reference given; cited from earlier work
# CYP 2C, 2D, 3A = details: preclinical evidence; no reference given; cited from earlier work
# [2] = tested on: advanced solid tumor malignancies; experiment: antitumor activity by RECIST v1.1; assay type: in vivo, human
# Experimental: This was a phase 1, open-label, dose-escalation study to evaluate the safety and PK of VS-6063, a FAK inhibitor in Japanese subjects with advanced solid tumor malignancies. This study was expected to enroll up to 18 evaluable subjects with non-hematologic malignancies if 6 subjects were assigned at each of the 3 planned dose levels of 200, 400, and 600 mg BID. VS-6063 was administered orally, BID, in continuous 21 day cycles. Subject enrollment proceeded according to a standard 3 + 3 design. In the absence of DLT, each subject received oral VS-6063 (BID) for a minimum of 21 days of continuous daily dosing (1 cycle) and could continue to receive additional cycles of study treatment until disease progression was documented or other treatment discontinuation criteria were met. All patients within a cohort were required to complete 1 cycle (21 days) of dosing with <1 of 3 or <2 of 6 subjects experiencing a DLT prior to escalation to the next dose level in a new cohort. Three subjects were to be treated at each dose level until the first instance of DLT, after which up to 6 subjects were to be treated at that dose level. […] The MTD was defined as the highest dose level studied at which <1 subject out of 3 or <2 subjects out of 6 experienced a DLT. The RP2D was to be determined in discussion among the sponsor, medical monitor, and investigators. Observations related to PK and any VS-6063-related toxicities were included in the rationale supporting the RP2D. Safety and tolerability was assessed by the incidence and severity of AEs as determined by National Cancer Institute (NCI) Common Terminology Criteria for Adverse Events (CTCAE v4.03). The antitumor activity of study treatment was assessed according to the Response Evaluation Criteria in Solid Tumors (RECIST v1.1).
# recombinant human FAK = details: in vitro; background statement, no reference given; read-out: IC50, inhibition of recombinant human FAK activity; cited from earlier work
# [3] = basis of the BID schedule; first-in-human experience; cited from earlier work
# other nontarget kinases = details: background statement, no reference given; cited from earlier work
# [4] = preclinical; no reference given; cited from earlier work
# [5] = po, 200 mg, 200 mg BID oral, n = 3, Day 1
# [6] = po, 200 mg, 200 mg BID oral, n = 3, Day 15
# [7] = po, 400 mg, 400 mg BID oral, n = 3, Day 1
# [8] = po, 400 mg, 400 mg BID oral, n = 3, Day 15
# [9] = po, 600 mg, 600 mg BID oral, n = 3, Day 1
# [10] = po, 600 mg, 600 mg BID oral, n = 3, Day 15
structure (smiles),measurement,setting,value
"CNC(=O)c1ccc(Nc2ncc(C(F)(F)F)c(NCc3nccnc3N(C)S(C)(=O)=O)n2)cc1 [VS-6063, defactinib]","V z, individual values",[1]; 200 mg BID oral,334 L and 99.6 L
same,exposure compared with that previously reported in non-Japanese subjects,[1]; 400 mg BID (RP2D),comparable; also recorded: consistent with previously reported data in non-Japanese patients; also recorded: comparable to that previously reported in non-Japanese patients
same,"V z, individual values",[1]; 600 mg BID oral,158 L and 3060 L
same,increase in exposure at doses above 400 mg BID,[1]; 600 mg versus 400 mg BID,did not result in a significant increase in VS-6063 exposure
same,dose proportionality of plasma exposure (Cmax and AUC),[1]; 200–600 mg BID,less than dose proportional
same,half-life,"[1]; oral, 200–600 mg BID, Days 1 and 15, read-out: median half-life values, range across all dose regimens and both PK study days",2.3 to 4.3 h
same,Cmax,[1]; [5],630 ng/mL
same,AUC(0-t),[1]; [5],3780 ng·h/mL
same,Tmax,"[1]; po, 200 mg, 200 mg BID oral, n = 3, Day 1, read-out: T max, median (range)",2 h
same,half-life,"[1]; po, 200 mg, 200 mg BID oral, n = 3, Day 1, read-out: t 1/2, median (range) (converted)",4.3 h
same,Cmax,[1]; [6],930 ng/mL
same,AUC(0-t),[1]; [6],6240 ng·h/mL
same,Tmax,"[1]; po, 200 mg, 200 mg BID oral, n = 3, Day 15, read-out: T max, median (range)",2 h
same,half-life,"[1]; po, 200 mg, 200 mg BID oral, n = 3, Day 15, read-out: t 1/2, median (range) (converted)",2.95 h
same,Cmax,[1]; [7],670 ng/mL
same,AUC(0-t),[1]; [7],3370 ng·h/mL
same,Tmax,"[1]; po, 400 mg, 400 mg BID oral, n = 3, Day 1, read-out: T max, median (range)",2 h
same,half-life,"[1]; po, 400 mg, 400 mg BID oral, n = 3, Day 1, read-out: t 1/2, median (range) (converted)",2.45 h
same,Cmax,[1]; [8],960 ng/mL
same,AUC(0-t),[1]; [8],5710 ng·h/mL
same,Tmax,"[1]; po, 400 mg, 400 mg BID oral, n = 3, Day 15, read-out: T max, median (range)",2 h
same,half-life,"[1]; po, 400 mg, 400 mg BID oral, n = 3, Day 15, read-out: t 1/2, median (range) (converted)",3 h
same,Cmax,[1]; [9],610 ng/mL
same,AUC(0-t),[1]; [9],2680 ng·h/mL
same,Tmax,"[1]; po, 600 mg, 600 mg BID oral, n = 3, Day 1, read-out: T max, median (range)",2 h
same,half-life,"[1]; po, 600 mg, 600 mg BID oral, n = 3, Day 1, read-out: t 1/2, median (range) (converted)",2.79 h
same,Cmax,[1]; [10],980 ng/mL
same,AUC(0-t),[1]; [10],4880 ng·h/mL
same,Tmax,"[1]; po, 600 mg, 600 mg BID oral, n = 3, Day 15, read-out: T max, median (range)",2 h
same,half-life,"[1]; po, 600 mg, 600 mg BID oral, n = 3, Day 15, read-out: t 1/2, median (range) (converted)",2.27 h
same,Tmax,"[1]; po, oral doses of 200–600 mg BID, all cohorts, read-out: Tmax range",0.5 to 4 h
same,Tmax,"[1]; po, oral doses of 200–600 mg BID, all cohorts, read-out: median Tmax",2 h
same,AUC(0-inf),"[1]; 200 mg BID oral, n = 3, Day 1",4390 ng·h/mL
same,AUC(0-inf),"[1]; 400 mg BID oral, n = 3, Day 1",3840 ng·h/mL
same,AUC(0-inf),"[1]; 600 mg BID oral, n = 3, Day 1",3000 ng·h/mL
same,UGT1A1 inhibition,UGT1A1,UGT1A1 inhibitors in vitro
same,"potential for CYP 2C-, 2D- or 3A-mediated drug interactions","CYP 2C, 2D, 3A",low potential
same,"median time to disease progression, range across dose cohorts","[2]; 200, 400, 600 mg cohorts",61 to 64 days
same,objective radiographic responses,[2]; 200–600 mg BID,No objective radiographic responses were observed
same,best response overall: stable disease,"[2]; out of 9 subjects (33 %), 1 subject in each dose cohort",3 subjects
same,durable stable disease,[2]; two subjects (malignant mesothelioma 400 mg and rectal cancer 600 mg),approximately 24 weeks
same,IC50,recombinant human FAK,0.6 nM
same,observed human half-life,[3],9.0 h
same,selectivity for FAK and Pyk2 over other nontarget kinases,other nontarget kinases,more than 100 fold
same,potential target organs in toxicology studies,[4],"liver and gall bladder, gastrointestinal tract, hematopoietic system, testes/epididymis, and cardiovascular system"
